Results taken from patent publication US7959904B2, “Delivery of medicaments to the nail” (University of Mississippi, priority 2001, dated 2011).

Test: Permeability study through full thickness nail plates in modified Franz diffusion cells
Type: in vitro ADME, human
Settings: for Total permeation of drug through nail plates: phosphate buffer pH 7.2 / 0.5% Brij 58 donor, after 48 hours
Experimental: Example 6 examines permeability of the medicament into the nail. For this Example, ketoconazole is utilized as a model drug to perform permeability studies. The drug is dissolved in two different media for testing which functioned as the donor solution. The first is an isotonic phosphate buffer solution (pH 7.2) with 0.5% Brij 58 as a solubilizer. The second is an 80:20 methanol/water solution buffered to pH 7.2. The receptor media is the same as the donor media without dissolved drug in both cases.
A system employing 9 modified glass Franz diffusion cells is used. Full thickness nail plates are sandwiched between two polypropylene adapters with an O-ring and were mounted on the individual cells with the dorsal nail plate facing the donor compartment (receptor volume 5.2 ml; donor surface area 0.5 cm^2). The receptor fluid is maintained at 37±0.5° C. and is continuously stirred with a magnetic bar. The donor solutions are applied to the dorsal nail surface following a one hour hydration period. Samples of the receptor phase are withdrawn at predetermined time intervals (for up to 48 hours) and immediately replaced with fresh […]. Analysis of the samples is corrected for previous drug removed. The receptor and donor compartments are sealed with a sheet of aluminum foil and wrapped with parafilm. The hermeticity of the system was continuously monitored. Drug content in the receptor media is determined using high performance liquid chromatography.

- Greater total permeation, etched vs nonetched nail (80:20 methanol/water buffered to pH 7.2 donor): ~3 fold
- Total permeation of drug through nail (80:20 methanol/water buffered to pH 7.2 donor, etched nail): 6,191±323.3 μg/cm^2
- Total permeation of drug through nail (80:20 methanol/water buffered to pH 7.2 donor, nonetched nail): 2,497±237 μg/cm^2
- Total permeation of drug through nail plates (etched nail plates): 1,873 (±155) μg/cm^2
- Total permeation of drug through nail plates (unetched nail plates): 446 (±51) μg/cm^2
- Difference in total permeation, etched vs unetched nail (phosphate buffer/Brij 58 donor, 48 hours): ~4 fold
Structure (SMILES): CC(=O)N1CCN(c2ccc(OCC3COC(Cn4ccnc4)(c4ccc(Cl)cc4Cl)O3)cc2)CC1 (stereo not drawn) [ketoconazole]
